Measurements reported in ChEMBL document CHEMBL1201862, “PubChem BioAssay data set” (2004).
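Each compound was tested at five concentrations against cells in 96-well plates for 48 hours. At the GI50, growth is halved.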 Calls of active or inactive are those of the source. Rule as the data show it: active = GI50 up to about 1.1 µM and inactive = higher.

Tests used:
Assay in all cases: inhibition of tumour cell growth, NCI panel, 48 h
[1] = system: NCI-H23
[2] = system: MDA-MB-435
[3] = system: RXF 393
[4] = system: SF-268
[5] = system: K562
[6] = system: SNB-75
[7] = system: HOP-92
[8] = system: HCT-15
[9] = system: M14
[10] = system: OVCAR-3
[11] = system: U-251
[12] = system: NCI-H460
[13] = system: T47D
[14] = system: KM12
[15] = system: HT-29
[16] = system: MDA-MB-231
[17] = system: SK-MEL-28
[18] = system: SK-MEL-5
[19] = system: HOP-62

Row | Compound | GI50 [1] | GI50 [2] | GI50 [3] | GI50 [4] | GI50 [5] | GI50 [6] | GI50 [7] | GI50 [8] | GI50 [9] | GI50 [10] | GI50 [11] | GI50 [12] | GI50 [13] | GI50 [14] | GI50 [15] | GI50 [16] | GI50 [17] | GI50 [18] | GI50 [19]
1 | O=C1Nc2ccccc2/C1=N/NC(=O)C(O)(c1ccccc1)c1ccccc1 | 16.1 µM (inactive) | 17 µM (inactive) | 14.6 µM (inactive) | 27.1 µM (inactive) | 23.2 µM (inactive) | 21.1 µM (inactive) | 18.9 µM (inactive) | 16.4 µM | 16.7 µM (inactive) | 20 µM (inactive) | 18.2 µM (inactive) | 17.2 µM (inactive) | 23.8 µM (inactive) | 17.4 µM (inactive) | 19.5 µM (inactive) | 18.1 µM (inactive) | 17.7 µM (inactive) | 16.2 µM (inactive) | 
2 | CCCCOC(=O)C1CN2C=CC=NC2=NC1(C(F)(F)F)C(F)(F)F (stereo not drawn) | > 100 µM (inactive) | > 100 µM (inactive) | > 100 µM (inactive) | > 100 µM (inactive) | > 100 µM (inactive) | > 100 µM (inactive) | > 100 µM (inactive) | > 100 µM | > 100 µM (inactive) | > 100 µM (inactive) | > 100 µM (inactive) | > 100 µM (inactive) | > 100 µM (inactive) | > 100 µM (inactive) | > 100 µM (inactive) | > 100 µM (inactive) | > 100 µM (inactive) | > 100 µM (inactive) | > 100 µM (inactive)
3 | Oc1nc2c(c(-c3ccc(F)cc3)n1)COC/C2=C\c1ccc(F)cc1 | > 100 µM (inactive) | > 100 µM (inactive) | > 100 µM (inactive) | > 100 µM (inactive) | > 100 µM (inactive) | > 100 µM (inactive) | > 100 µM (inactive) | > 100 µM | > 100 µM (inactive) | > 100 µM (inactive) | > 100 µM (inactive) | > 100 µM (inactive) | > 100 µM (inactive) | > 100 µM (inactive) |  | > 100 µM (inactive) |  | > 100 µM (inactive) | > 100 µM (inactive)
4 | COc1ccc2c(c1)-c1c(c3cc(OC)ccc3n1CCCN(C)C)CC2 | 16.8 µM (inactive) | 5.55 µM (inactive) | 6.93 µM (inactive) | 10.7 µM (inactive) | 4.3 µM (inactive) | 2.99 µM (inactive) | 12.2 µM (inactive) | 11.4 µM | 2.03 µM (inactive) | 14.1 µM (inactive) | 8.67 µM (inactive) | 10.1 µM (inactive) | 5.36 µM (inactive) | 7.93 µM (inactive) | 2.81 µM (inactive) | 13 µM (inactive) | 5.78 µM (inactive) | 2.68 µM (inactive) | 14.3 µM (inactive)
5 | O=CNc1ccc2c(c1)C(=O)c1ccccc1-2 | > 100 µM (inactive) | > 100 µM (inactive) | 65.2 µM (inactive) | 47.3 µM (inactive) | 81.3 µM (inactive) | 86.3 µM (inactive) | 72.8 µM (inactive) | 59.7 µM | > 100 µM (inactive) | > 100 µM (inactive) | 65 µM (inactive) | 46 µM (inactive) | 76.9 µM (inactive) | 68.2 µM (inactive) | 49 µM (inactive) | > 100 µM (inactive) | > 100 µM (inactive) | > 100 µM (inactive) | 90.2 µM (inactive)
6 | Nc1onc2c1Cc1c(noc1N)-c1ccccc1-2 | 53.6 µM (inactive) | 25.2 µM (inactive) | 58.1 µM (inactive) | 54 µM (inactive) | 41.3 µM (inactive) | 33.2 µM (inactive) | 37.2 µM (inactive) | 43.8 µM | 84.3 µM (inactive) | 53.7 µM (inactive) | 57.5 µM (inactive) | > 100 µM (inactive) | 27 µM (inactive) | 49.8 µM (inactive) | 80.4 µM (inactive) | 35.1 µM (inactive) | > 100 µM (inactive) | 36.6 µM (inactive) | > 100 µM (inactive)
7 | CCOC(=O)c1c(Br)c(-c2ccc(Br)cc2)c(Br)n1C | 22.7 µM (inactive) | 3.15 µM (inactive) | 11.2 µM (inactive) | 19.7 µM (inactive) | 5.08 µM (inactive) | 3.18 µM (inactive) | 7.31 µM (inactive) | 13 µM | 18.8 µM (inactive) | 14.7 µM (inactive) | 18 µM (inactive) | 28.4 µM (inactive) | 10.5 µM (inactive) | 10.2 µM (inactive) | 11.7 µM (inactive) | 13.6 µM (inactive) | 15.3 µM (inactive) | 17.5 µM (inactive) | 19.9 µM (inactive)
8 | CC(=O)OC1CC(O)CC2=CCC3C4CCC(C(C)(O)C(O)CC5COC(=O)C5C)C4(C)CCC3C21C (stereo not drawn) | > 25 µM (inactive) | > 25 µM (inactive) | > 25 µM (inactive) | > 25 µM (inactive) | 18.4 µM (inactive) | 7.08 µM (inactive) | > 25 µM (inactive) | > 25 µM | > 25 µM (inactive) | > 25 µM (inactive) | > 25 µM (inactive) | > 25 µM (inactive) | > 25 µM (inactive) | > 25 µM (inactive) | > 25 µM (inactive) | 13 µM (inactive) | 24.5 µM (inactive) | 7.66 µM (inactive) | > 25 µM (inactive)
9 | Cc1nc2cc([N+](=O)[O-])ccc2c(NCCCN(C)C)c1C | 4.03 µM (inactive) | 15.6 µM (inactive) | 11.1 µM (inactive) | 20.3 µM (inactive) | 3.77 µM (inactive) | 20.7 µM (inactive) | 1.95 µM (inactive) | 14.7 µM | 13.8 µM (inactive) | 6.31 µM (inactive) | 18.8 µM (inactive) | 3.18 µM (inactive) | 4.09 µM (inactive) | 6.05 µM (inactive) | 2.76 µM (inactive) | 3.34 µM (inactive) | 50.5 µM (inactive) | 10.1 µM (inactive) | 10.9 µM (inactive)
10 | CCc1ccc(Nc2cc(=O)n(C)c(SCc3ccccc3)n2)cc1 | > 100 µM (inactive) | 80.4 µM (inactive) | 23.1 µM (inactive) | 97.7 µM (inactive) | > 100 µM (inactive) | > 100 µM (inactive) | 20.3 µM (inactive) | 62.2 µM | > 100 µM (inactive) | 29.4 µM (inactive) |  |  | 95.3 µM (inactive) | 66.4 µM (inactive) | 21.9 µM (inactive) | 59.7 µM (inactive) |  | 51.2 µM (inactive) | 69.3 µM (inactive)
11 | CN(C)CCNC1=C(Cl)C(=O)c2c(O)ccc(O)c2C1=O | 2.18 µM (inactive) | 1.71 µM (inactive) | 4.34 µM (inactive) | 17.1 µM (inactive) | 2.76 µM (inactive) | 2.99 µM (inactive) | 2.17 µM (inactive) | 2.51 µM | 1.95 µM (inactive) | 1.98 µM (inactive) | 1.84 µM (inactive) | 1.95 µM (inactive) | 2.08 µM (inactive) | 1.82 µM (inactive) | 1.85 µM (inactive) | 1.38 µM (inactive) | 2.12 µM (inactive) | 1.54 µM (inactive) | 1.95 µM (inactive)
12 | COC(=O)CCc1ccc(CCC(=O)OC)cc1 | > 100 µM (inactive) | > 100 µM (inactive) | > 100 µM (inactive) | > 100 µM (inactive) | > 100 µM (inactive) | > 100 µM (inactive) | > 100 µM (inactive) | > 100 µM | > 100 µM (inactive) | > 100 µM (inactive) | > 100 µM (inactive) | > 100 µM (inactive) | > 100 µM (inactive) |  | > 100 µM (inactive) | > 100 µM (inactive) | > 100 µM (inactive) | > 100 µM (inactive) | > 100 µM (inactive)
13 | COC(=O)C1=C(OC(=O)c2ccccc2)C(C(=O)OC)[C@]2(O)[C@@H](C(=O)OC)[C@H]1C[C@@H](c1ccccc1)[C@@H]2C(=O)OC (stereo partly drawn) | 6.32 µM (inactive) | 2.45 µM (inactive) | 3.14 µM (inactive) | 11.4 µM (inactive) | 3.33 µM (inactive) |  | 2.82 µM (inactive) | 7.82 µM | 1.95 µM (inactive) | 10.8 µM (inactive) | 5.24 µM (inactive) | 9.68 µM (inactive) | 6.52 µM (inactive) | 8.63 µM (inactive) | 15.7 µM (inactive) | 15.7 µM (inactive) | 12.2 µM (inactive) | 4.85 µM (inactive) | 13.2 µM (inactive)
14 | COc1c2c(cc3oc(C)cc(=O)c13)OC(=N)C(C(N)=O)C2CC(=O)c1ccc(N)cc1 (stereo not drawn) |  | > 100 µM (inactive) | > 100 µM (inactive) | > 100 µM (inactive) | > 100 µM (inactive) | > 100 µM (inactive) | > 100 µM (inactive) | > 100 µM | > 100 µM (inactive) | > 100 µM (inactive) | > 100 µM (inactive) | > 100 µM (inactive) | > 100 µM (inactive) | > 100 µM (inactive) |  | > 100 µM (inactive) | > 100 µM (inactive) | > 100 µM (inactive) | 
15 | O=C1C2CCCCC2C(=O)N1n1c(-c2ccccc2)n[nH]c1=O (stereo not drawn) | > 100 µM (inactive) | > 100 µM (inactive) | > 100 µM (inactive) | > 100 µM (inactive) | > 100 µM (inactive) | > 100 µM (inactive) | > 100 µM (inactive) | > 100 µM | > 100 µM (inactive) | > 100 µM (inactive) | > 100 µM (inactive) | > 100 µM (inactive) | > 100 µM (inactive) | > 100 µM (inactive) | > 100 µM (inactive) | > 100 µM (inactive) |  | > 100 µM (inactive) | > 100 µM (inactive)
